From patent US11505835B2, “Method for determining the identity and antimicrobial susceptibility of a microorganism” (Q-linea AB, priority 2014, dated 2022)
In brackets after ≈: the same amount, converted by molar mass.

How the values were obtained:
E. coli [1] = assay: AST by counting individual bacteria in a flow cytometry type instrument (Aquila 400); MIC from differential growth relative to positive control; format: cell-based
Method: The sample was enriched for bacteria and at the same time the culture media was changed, in this case to Mueller-Hinton media (MH-media). E. coli bacteria were recovered via filtration through a 0.2 μm filter and the recovered bacteria were resuspended in MH-media to a concentration of approximately 10^8 CFU/ml in Müller Hinton broth before being diluted to approximately 10^6 CFU/ml in Müller Hinton Broth. Antibiotic solutions were prepared in a series of 2:1 serial dilutions in Müller Hinton broth at 10×test concentrations. The range of antibiotic concentrations was chosen based on identity of the bacteria and the antibiotic. […] A series of eight different concentrations was selected based on known clinical MIC values. Eight sample tubes containing 100 μl antibiotic solution at eight different concentrations and 800 μl Müller Hinton broth were prepared. One additional tube contains 900 μl Müller Hinton broth and no antibiotic as positive control. 100 μl bacterial suspension (10^6 CFU/ml) was added to all nine tubes. A negative control sample comprising 1000 μl Müller Hinton broth (i.e. no bacteria) is prepared as negative control. All tubes were incubated at 35° C. and samples were taken after 0, 4, 6 and 24 hours. Bacterial samples were prepared for counting as in Example 2. Bacterial AST profiles were determined using a flow cytometry based counting of individual bacteria in an Aquila 400 instrument (Q-linea AB, Sweden). Aquila 400 analysis was performed using the alexa 488 laser. […] MIC values for each antibiotic at different time points and cut-off values were calculated based on the differential bacterial growth.

E. coli [2] = assay: MIC with Macrobroth dilution; format: cell-based; settings: reference method; for MIC: Escherichia coli
E. coli [3] = settings: determined by another lab; cited from earlier work
[4] = Escherichia coli, 4 h, cut-off 5%, 4 hours, Müller Hinton broth, 35° C., read-out: MIC
[5] = Escherichia coli, 4 h, cut-off 10%, 4 hours, Müller Hinton broth, 35° C., read-out: MIC
[6] = Escherichia coli, 24 h, cut-off 5%, 24 hours, Müller Hinton broth, 35° C., read-out: MIC
[7] = Escherichia coli, 24 h, cut-off 10%, 24 hours, Müller Hinton broth, 35° C., read-out: MIC
[8] = Escherichia coli, 24 h, cut-off 15%, 24 hours, Müller Hinton broth, 35° C., read-out: MIC
[9] = Escherichia coli, 24 h, cut-off 20%, 24 hours, Müller Hinton broth, 35° C., read-out: MIC
[10] = Escherichia coli, 4 h, cut-off 15%, 4 hours, Müller Hinton broth, 35° C., read-out: MIC
[11] = Escherichia coli, 4 h, cut-off 20%, 4 hours, Müller Hinton broth, 35° C., read-out: MIC
[12] = Escherichia coli, 6 h, cut-off 5%, 6 hours, Müller Hinton broth, 35° C., read-out: MIC
[13] = Escherichia coli, 6 h, cut-off 10%, 6 hours, Müller Hinton broth, 35° C., read-out: MIC
[14] = Escherichia coli, 6 h, cut-off 15%, 6 hours, Müller Hinton broth, 35° C., read-out: MIC
[15] = Escherichia coli, 6 h, cut-off 20%, 6 hours, Müller Hinton broth, 35° C., read-out: MIC

| Molecule | MIC with E-test (E. coli [3]) [µg/mL] | MIC (E. coli [1]; [4]) [µg/mL] | MIC (E. coli [1]; [5]) [µg/mL] | MIC (E. coli [1]; [6]) [µg/mL] | MIC (E. coli [1]; [7]) [µg/mL] | MIC (E. coli [1]; [8]) [µg/mL] | MIC (E. coli [1]; [9]) [µg/mL] | MIC (E. coli [2]) [µg/mL] | MIC (E. coli [1]; [10]) [µg/mL] | MIC (E. coli [1]; [11]) [µg/mL] | MIC (E. coli [1]; [12]) [µg/mL] | MIC (E. coli [1]; [13]) [µg/mL] | MIC (E. coli [1]; [14]) [µg/mL] | MIC (E. coli [1]; [15]) [µg/mL] | other results |
| --- | --- | --- | --- | --- | --- | --- | --- | --- | --- | --- | --- | --- | --- | --- | --- |
| Gentamicin | 1 | – | – | – | – | – | – | – | – | – | – | – | – | – | MIC (E. coli [1]; cut-off 5%, 4 hours, Müller Hinton broth, 35° C.): 1 µg/mL; MIC (E. coli [1]; cut-off 5%, 6 hours, Müller Hinton broth, 35° C.): 0.5 µg/mL; MIC (E. coli [1]; cut-off 5%, 24 hours, Müller Hinton broth, 35° C.): 1 µg/mL; MIC (E. coli [1]; cut-off 10%, 4 hours, Müller Hinton broth, 35° C.): 0.5 µg/mL; MIC (E. coli [1]; cut-off 10%, 6 hours, Müller Hinton broth, 35° C.): 0.5 µg/mL; MIC (E. coli [1]; cut-off 10%, 24 hours, Müller Hinton broth, 35° C.): 1 µg/mL; MIC (E. coli [1]; cut-off 15%, 4 hours, Müller Hinton broth, 35° C.): 0.5 µg/mL; MIC (E. coli [1]; cut-off 15%, 6 hours, Müller Hinton broth, 35° C.): 0.5 µg/mL; MIC (E. coli [1]; cut-off 15%, 24 hours, Müller Hinton broth, 35° C.): 1 µg/mL; MIC (E. coli [1]; cut-off 20%, 4 hours, Müller Hinton broth, 35° C.): 0.5 µg/mL; MIC (E. coli [1]; cut-off 20%, 6 hours, Müller Hinton broth, 35° C.): 0.5 µg/mL; MIC (E. coli [1]; cut-off 20%, 24 hours, Müller Hinton broth, 35° C.): 1 µg/mL; MIC with Macrobroth dilution (E. coli [2]): 0.5 to 1 µg/mL |
| CC(C)(O/N=C(\C(=O)N[C@@H]1C(=O)N2C(C(=O)[O-])=C(C[n+]3ccccc3)CS[C@H]12)c1csc(N)n1)C(=O)O [Ceftazidime] | ≤ 0.5 | 0.25 (≈ 0.457 µM) | 0.25 (≈ 0.457 µM) | 0.25 (≈ 0.457 µM) | 0.25 (≈ 0.457 µM) | 0.25 (≈ 0.457 µM) | 0.25 (≈ 0.457 µM) | 0.25 (≈ 0.457 µM) | – | – | – | – | – | – | – |
| O=C(O)c1cn(C2CC2)c2cc(N3CCNCC3)c(F)cc2c1=O [Ciprofloxacin] | ≤ 0.03 | 0.016 (≈ 0.0483 µM) | 0.008 (≈ 0.0241 µM) | 0.008 (≈ 0.0241 µM) | 0.008 (≈ 0.0241 µM) | 0.008 (≈ 0.0241 µM) | 0.008 (≈ 0.0241 µM) | 0.016 (≈ 0.0483 µM) | 0.008 (≈ 0.0241 µM) | 0.008 (≈ 0.0241 µM) | 0.008 (≈ 0.0241 µM) | 0.008 (≈ 0.0241 µM) | 0.008 (≈ 0.0241 µM) | 0.004 (≈ 0.0121 µM) | – |
| C[C@@H](O)[C@H]1C(=O)N2C(C(=O)O)=C(S[C@@H]3CN[C@H](C(=O)N(C)C)C3)[C@H](C)[C@H]12 [Meropenem] | ≤ 0.25 | – | – | 0.5 (≈ 1.3 µM) | 0.5 (≈ 1.3 µM) | 0.25 (≈ 0.652 µM) | – | 0.25 to 0.5 (≈ 0.652 to 1.3 µM) | – | 0.5 (≈ 1.3 µM) | – | – | 0.5 (≈ 1.3 µM) | 0.25 (≈ 0.652 µM) | MIC (E. coli [1]; Escherichia coli, 24 h): 0.125 µg/mL (≈ 0.326 µM) |
| CO/N=C(\C(=O)N[C@@H]1C(=O)N2C(C(=O)O)=C(COC(C)=O)CS[C@H]12)c1csc(N)n1 [Cefotaxime] | ≤ 0.5 | – | – | – | – | 0.06 (≈ 0.132 µM) | 0.06 (≈ 0.132 µM) | – | 0.06 (≈ 0.132 µM) | 0.06 (≈ 0.132 µM) | 0.06 (≈ 0.132 µM) | 0.06 (≈ 0.132 µM) | 0.03 (≈ 0.0659 µM) | 0.03 (≈ 0.0659 µM) | – |
